Test: recombinant barcode read abundance after kanamycin selection (control-corrected) (log10(CPM+1)); higher = more efficient recombination; sequences stand for … in AGTGCAGAGAAAATCGGCCAGTTTTCTCTGCCTGCAGTCCGCATGCCGT…AGATTTATGCAGCGGACTGCCTTTCTCCCAAAGTGATAAACCGGACAGTATCATGGACCGGTTTTCCCGGTAATCCGTATTTGCAAGGTTGGTTTCACT; site = the 11-nt target
How it was run: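 Pooled oligos, each joining a target to an IS621 bridge RNA target-binding loop, were cloned and co-electroporated with a donor plasmid into E. coli. Selective plates carried chloramphenicol/ampicillin/kanamycin and 0.1 mM IPTG, while chloramphenicol/ampicillin LB agar served as control, with two replicates of each. Recombination efficiency rests on averaged, control-corrected counts per million of barcodes at recombinant junctions, shown as log10(CPM+1).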
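Also: IS621 recombinase and bridge RNA in Escherichia coli cells.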

| Sequence | recombinant barcode read abundance (log10) |
| --- | --- |
| AGCCTGTCTTGGGTTCTAACCTGTTGCCT (site AGCCTGACTAG) | 0.444 |
| AGCCTGTCTTGGGTTCTAACCTGTTGCCT (site AGCCTGCCTAG) | 0 |
| AGCCTGTCTTGGGTTCTAACCTGTTGCCT (site AGCCTGGCTAG) | 0.143 |
| AGCCTGTCTTGGGTTCTAACCTGTTGCCT (site AGCCTGTCTAG) | 1.36 |
| AGCGAATCTTGGGTTCTAACCTGTTGCCG (site AGCGAATCTCG) | 0.217 |
| AGCGAATCTTGGGTTCTAACCTGTTGCCG (site GAGCGTCCTTA) | 0.232 |
| AGCGCGACTTGGGTTCTAACCTGTTGCCT (site AGCGCGACTAG) | 0.381 |
| AGCGCGACTTGGGTTCTAACCTGTTGCCT (site AGGACGACTAG) | 0.338 |
| AGCGCTCCTTGGGTTCTAACCTGTTGCGT (site AGCCCTCCTAT) | 0.532 |
| AGCGCTCCTTGGGTTCTAACCTGTTGCGT (site AGCGCTCCTAC) | 0.646 |
| AGCGGGCCTTGGGTTCTAACCTGTTGCCT (site AGCGGACCTAG) | 0.382 |
| AGCGGGCCTTGGGTTCTAACCTGTTGCCT (site AGCGGCCCTAG) | 1.08 |
| AGCGGGCCTTGGGTTCTAACCTGTTGCCT (site AGCGGGCCTAG) | 0.313 |
| AGCGGGCCTTGGGTTCTAACCTGTTGCCT (site AGCGGTCCTAG) | 0.072 |
| AGCTAAACTTGGGTTCTAACCTGTTGCCT (site AGCTAAACTAG) | 0.256 |
| AGCTAAACTTGGGTTCTAACCTGTTGCCT (site AGCTTATCTAG) | 0.141 |
| AGCTACTCTTGGGTTCTAACCTGTTGCTT (site AGCTACTCTAA) | 0.694 |
| AGCTACTCTTGGGTTCTAACCTGTTGCTT (site AGTTAATCTAA) | 0.144 |
| AGCTCATCTTGGGTTCTAACCTGTTGCCT (site AGCTCACCTAG) | 0.0516 |
| AGCTCATCTTGGGTTCTAACCTGTTGCCT (site AGCTCATCTAG) | 0.0912 |
| AGCTTAGCTTGGGTTCTAACCTGTTGCCG (site AGCTTAGCTAG) | 0.14 |
| AGCTTAGCTTGGGTTCTAACCTGTTGCCG (site AGCTTAGCTCG) | 0.19 |

| Sequence | recombinant barcode read abundance (log10) |
| --- | --- |
| AGCTTAGCTTGGGTTCTAACCTGTTGCCG (site AGCTTAGCTGG) | 0.0372 |
| AGCTTAGCTTGGGTTCTAACCTGTTGCCG (site AGCTTAGCTTG) | 0.188 |
| AGGAATTCTTGGGTTCTAACCTGTTGCCT (site AGAAATTCTAG) | 0.443 |
| AGGAATTCTTGGGTTCTAACCTGTTGCCT (site AGCAATTCTAG) | 0.356 |
| AGGAATTCTTGGGTTCTAACCTGTTGCCT (site AGGAATTCTAG) | 1.59 |
| AGGAATTCTTGGGTTCTAACCTGTTGCCT (site AGTAATTCTAG) | 0 |
| AGGACTTCTTGGGTTCTAACCTGTTGCCT (site AGGACTTCTAG) | 0.618 |
| AGGACTTCTTGGGTTCTAACCTGTTGCCT (site AGGATTACTAG) | 0.704 |
| AGGAGCCCTTGGGTTCTAACCTGTTGCTG (site AGGAGCCCTAA) | 0.0752 |
| AGGAGCCCTTGGGTTCTAACCTGTTGCTG (site AGGAGCCCTCA) | 1.75 |
| AGGAGCCCTTGGGTTCTAACCTGTTGCTG (site AGGAGCCCTGA) | 0.0914 |
| AGGAGCCCTTGGGTTCTAACCTGTTGCTG (site AGGAGCCCTTA) | 0.194 |
| AGGAGCTCTTGGGTTCTAACCTGTTGCTA (site AGGAACTCTAA) | 0.131 |
| AGGAGCTCTTGGGTTCTAACCTGTTGCTA (site AGGAGCTCTTA) | 1.27 |
| AGGATAACTTGGGTTCTAACCTGTTGCCT (site AGGATAACTAG) | 0.655 |
| AGGATAACTTGGGTTCTAACCTGTTGCCT (site AGGATACCTAG) | 0 |
| AGGATACCTTGGGTTCTAACCTGTTGCCT (site AGGATAACTAG) | 0.219 |
| AGGATACCTTGGGTTCTAACCTGTTGCCT (site AGGATACCTAG) | 1.56 |
| AGGATATCTTGGGTTCTAACCTGTTGCCT (site AAGATATCTAG) | 0.114 |
| AGGATATCTTGGGTTCTAACCTGTTGCCT (site ACGATATCTAG) | 0.14 |
| AGGATATCTTGGGTTCTAACCTGTTGCCT (site AGGATATCTAG) | 0.559 |
| AGGATATCTTGGGTTCTAACCTGTTGCCT (site ATGATATCTAG) | 0.261 |

| Sequence | recombinant barcode read abundance (log10) |
| --- | --- |
| AGGATCCCTTGGGTTCTAACCTGTTGCAT (site AGGATCCCTAT) | 1.99 |
| AGGATCCCTTGGGTTCTAACCTGTTGCAT (site AGGATCCCTCT) | 1.07 |
| AGGATTACTTGGGTTCTAACCTGTTGCCT (site AGGACTTCTAG) | 0.161 |
| AGGATTACTTGGGTTCTAACCTGTTGCCT (site AGGATTACTAG) | 0.641 |
| AGGCACTCTTGGGTTCTAACCTGTTGCTG (site AGGCACTCTCA) | 2.35 |
| AGGCACTCTTGGGTTCTAACCTGTTGCTG (site TGGCACTCTAA) | 0.0921 |
| AGGCATCCTTGGGTTCTAACCTGTTGCCT (site AAGCATCCTAG) | 0.32 |
| AGGCATCCTTGGGTTCTAACCTGTTGCCT (site ACGCATCCTAG) | 0.202 |
| AGGCATCCTTGGGTTCTAACCTGTTGCCT (site AGGCATCCTAG) | 0.147 |
| AGGCATCCTTGGGTTCTAACCTGTTGCCT (site ATGCATCCTAG) | 0.0852 |
| AGGCCGCCTTGGGTTCTAACCTGTTGCCG (site AGGCCGCCTCG) | 1.17 |
| AGGCCGCCTTGGGTTCTAACCTGTTGCCG (site AGGCCGGCTCG) | 0.178 |
| AGGGAGACTTGGGTTCTAACCTGTTGCCA (site AGGAAGACTTG) | 1.63 |
| AGGGAGACTTGGGTTCTAACCTGTTGCCA (site AGGCAGACTTG) | 0.0382 |
| AGGGAGACTTGGGTTCTAACCTGTTGCCA (site AGGGAGACTTG) | 2.49 |
| AGGGAGACTTGGGTTCTAACCTGTTGCCA (site AGGTAGACTTG) | 0.0182 |
| AGGGAGACTTGGGTTCTAACCTGTTGCTT (site AGGGAGACTAA) | 2.39 |
| AGGGAGACTTGGGTTCTAACCTGTTGCTT (site AGGGATACTAA) | 0.25 |
| AGGGCCTCTTGGGTTCTAACCTGTTGCAG (site AGGGCCTCTCT) | 2.73 |
| AGGGCCTCTTGGGTTCTAACCTGTTGCAG (site GGGGCCTCTTT) | 0.118 |
| AGGGCGCCTTGGGTTCTAACCTGTTGCTT (site AGGGCGCCTAA) | 1.18 |
| AGGGCGCCTTGGGTTCTAACCTGTTGCTT (site CATTTAGCTCC) | 0.822 |

| Sequence | recombinant barcode read abundance (log10) |
| --- | --- |
| AGGGGAGCTTGGGTTCTAACCTGTTGCCT (site AGGGAAGCTAG) | 1.12 |
| AGGGGAGCTTGGGTTCTAACCTGTTGCCT (site AGGGCAGCTAG) | 0.109 |
| AGGGGAGCTTGGGTTCTAACCTGTTGCCT (site AGGGGAGCTAG) | 1.61 |
| AGGGGAGCTTGGGTTCTAACCTGTTGCCT (site AGGGTAGCTAG) | 0.315 |
| AGGTAGACTTGGGTTCTAACCTGTTGCTA (site AGGTAGACTTA) | 2.44 |
| AGGTAGACTTGGGTTCTAACCTGTTGCTA (site GGGTACACTTA) | 0.303 |
| AGGTCACCTTGGGTTCTAACCTGTTGCAT (site AGGTCACCTAA) | 0.129 |
| AGGTCACCTTGGGTTCTAACCTGTTGCAT (site AGGTCACCTAC) | 0.62 |
| AGGTCACCTTGGGTTCTAACCTGTTGCAT (site AGGTCACCTAG) | 0.128 |
| AGGTCACCTTGGGTTCTAACCTGTTGCAT (site AGGTCACCTAT) | 2.12 |
| AGGTCCTCTTGGGTTCTAACCTGTTGCTT (site AGGTCCTCTAA) | 1.13 |
| AGGTCCTCTTGGGTTCTAACCTGTTGCTT (site AGGTCCTCTAC) | 0.715 |
| AGGTCCTCTTGGGTTCTAACCTGTTGCTT (site AGGTCCTCTAG) | 0.954 |
| AGGTCCTCTTGGGTTCTAACCTGTTGCTT (site AGGTCCTCTAT) | 1.2 |
| AGGTCGGCTTGGGTTCTAACCTGTTGCCT (site AGATCGGCTAG) | 0.329 |
| AGGTCGGCTTGGGTTCTAACCTGTTGCCT (site AGGTCGGCTAG) | 1.24 |
| AGGTCGTCTTGGGTTCTAACCTGTTGCCT (site AAGTCGTCTAG) | 0 |
| AGGTCGTCTTGGGTTCTAACCTGTTGCCT (site ACGTCGTCTAG) | 0.146 |
| AGGTCGTCTTGGGTTCTAACCTGTTGCCT (site AGGTCGTCTAG) | 1.74 |
| AGGTCGTCTTGGGTTCTAACCTGTTGCCT (site ATGTCGTCTAG) | 0.0512 |

Source: the supplement of paper PMC11208160
